Test results reported in article PMC5218480 (PLoS ONE, 2017).

Tested on: MV-4-11 cells
Assay: Gene expression microarray analysis (Affymetrix PrimeView) and GSEA
Format: cell-based, human
Conditions: ProbeSet 11717523_x_at; LIST B

Compound: Nc1ccc(-c2cccs2)cc1NC(=O)c1ccc2c(c1)cc(C1CC1)n2CCN1CCOCC1 [ACY-1035]
- RFU, TMEM50B: 85.32 RFU
